# pIC50: −log10 of the molar value. Read-outs that look alike come from different tables or passages of the source.
# Key:
# [1] = test system: Escherichia coli CCM 3954, ATCC 25922; test: Antibacterial microdilution broth MIC, EC; type: cell-based
# [2] = buffer, 3 h, 1 µM, pH 7.4
# Experimental: HPLC-MS stability determination in PBS (pH 7.4)
# Briefly, compounds were dissolved in DMSO to produce stock sample solutions.
# NaOH. The concentration of tested compounds was set at 1 µM.
# After that, 150 µL of supernatant was
# transferred to the vial and analyzed by LC-MS.
# 3000 RS coupled with a Q Exactive Plus orbitrap mass spectrometer to obtain the areas (Thermo Fisher
# Scientific, Bremen, Germany). Reverse-phase C18 column Kinetex EVO (Phenomenex, Torrance, CA,
# USA) was used as a stationary phase, and purified water with 0.1% formic acid (mobile phase A) and
# LC-MS grade acetonitrile with 0.1% formic acid (mobile phase B) were used as the mobile phases.
# Gradient elution was used to determine purities and mass spectra. The method started with 5% B for
# 0.3 min, then the gradient switched to 100% B in the third min, remained at 100% B for 0.7 min and
# then went back to 5% B with equilibration for 3.5 min. The total run time of the method was 7.5 min.
# The column temperature was kept constant at 27 °C, the flow of the mobile phase was 0.5 mL/min,
# and the injection volume was 1 µL.
# [3] = test system: Mycobacterium tuberculosis H37Ra; test: Antimycobacterial microdilution broth MIC (resazurin), Mtb H37Ra; type: cell-based; details: for MIC: Mycobacterium tuberculosis, H37RA, read-out: MIC Mtb H37Ra
# [4] = test system: Mycolicibacterium smegmatis DSM 43465; test: Antimycobacterial microdilution broth MIC (resazurin), M. smegmatis; type: cell-based; details: DSM43465, read-out: MIC M. smegmatis
# HK‐2 cell line = test: Cytotoxicity CellTiter 96, HK-2 normal cell line; type: cell-based; details: Homo sapiens, 24 h incubation
# Experimental: The cytotoxicity of final compounds was determined in human hepatocellular carcinoma cell line HepG2. Additional testing of selected compounds was performed on human epithelial kidney cancer cell line A498, human prostate cancer cell line PC‐3, human glioblastoma cell line U‐87 MG, and normal human proximal tubule cell line HK‐2.
# 1.4. Cytotoxicity determination […]
# For subculturing, the cells were harvested after trypsin/EDTA (Sigma–Aldrich) treatment at 37 °C. To evaluate cytotoxicity, the cells treated with the tested substances were used as experimental groups whereas untreated HepG2 cells served as controls. The cells were seeded in density 10,000 cells per well in a 96 well plate. The next day the cells were treated with each of the tested substances dissolved in DMSO. The tested substances were […]
# in triplicates according to their solubility. Simultaneously, the controls representing 100% cell viability, 0% cell viability (the cells treated with 10% DMSO), no cell control and vehiculum controls were also prepared in triplicates. After 24 h incubation in a humidified atmosphere containing 5% CO2 at […], the reagent from the kit CellTiter 96 AQueous One Solution Cell Proliferation Assay (CellTiter 96; PROMEGA, Fitchburg, USA) was added. After 2h incubation at 37 °C, absorbance of samples was recorded at 490 nm (TECAN, Infinita M200, Austria). A standard toxicological parameter IC50 was calculated by nonlinear regression from a semilogarithmic plot of incubation concentration versus percentage of absorbance relative to untre ated controls using GraphPad Prism 8 software.
# Human epithelial kidney carcinoma A498 cell line, obtained from American Type Culture Collection (ATCC, Manassas, VA, USA, catalogue No.: HTB -44), was cultured in RPMI medium, Human normal kidney proximal tubule HK-2 cell line obtained from ATCC (ATCC, Manassas, VA, USA, catalogue No.:
# CRL-2190) was cultured in DMEM High Glucose medium, Human prostate adenocarcinoma PC-3 cell line, obtained from ATCC (Manassas, VA, USA, catalogue No.: 90112714), was cultured in a Kaighn's Modification of Ham's F-12 Medium and human glioblastoma astrocytoma U-87 MG cell line, obtained from ECACC (ECACC, Salisbury, UK, catalogue No.: 89081402) was cultured in DMEM High Glucose medium. All cultures were supplemented with 10% fetal bovine serum, 1% non-essential amino acids (A498, HK-2 and U-87 MG), 1% sodium pyruvate (A498, HK-2 and U-87 MG) and 2 mM L-glutamine. […]
# Simultaneously, the controls representing 100% cell viability, 0% cell viability (the cells treated with 10% DMSO), no cell control and vehiculum controls were also prepared in triplicates. […] Eventually, a colorimetric assay reagent CellTiter 96 AQueous One Solution Cell Proliferation Assay was added, and absorption was measured.
SMILES,"MIC ([1]; 24 h, read-out: MIC EC 24h) [µM]","MIC ([1]; 48 h, read-out: MIC EC 48h) [µM]",concentration remaining (hydrolytic stability) [2] [%],MIC ([3]; Calculated from MIC (μg/mL)) [µM],MIC [3] [µg/mL],"SI (selectivity index) ([3]; SI = HepG2 IC50 (μM)/MIC MtbH37Ra (μM), calculated for compounds with MIC ≤ 31.25 μg/mL)",MIC [4] [µg/mL],pIC50 (HK‐2 cell line)
"COc1ccc(CC(=O)Nc2cccc(Cl)n2)cc1 [Compound 12, 2-(4-methoxyphenyl)-N-(6-chloropyridin-2-yl)acetamide]",> 500,> 500,≥ 90,56.3,15.6,9.2,62.5,< 3.60
"O=C(Cc1cccc(Cl)c1)Nc1ccc(Cl)cn1 [Compound 17, 2-(3-chlorophenyl)-N-(5-chloropyridin-2-yl)acetamide]",> 500,> 500,,445,125,,> 500,3.86
O=C(Cc1ccccc1C(F)(F)F)Nc1cccc(Cl)n1 [Compound 24],> 500,> 500,≥ 90,> 1590,> 500,,> 500,3.61
O=C(Cc1cccc(C(F)(F)F)c1)Nc1ccc(Cl)cn1 [Compound 26],> 500,> 500,,> 1590,> 500,,125,4.52

# Source: PMC11748363, “Antimicrobial and Antiproliferative Properties of 2‐Phenyl‐N‐(Pyridin‐2‐yl)acetamides” (Chemical Biology & Drug Design, 2025)
